According to patent publication US10806737B2, “Compounds and methods for the targeted degradation of fetal liver kinase polypeptides” (Arvinas Operations, Inc., priority 2016, dated 2020):
pIC50: −log10 of the molar value. Read-outs that look alike come from different tables or passages of the source.

Key:
[1] = molecular target: T1, FLT-3 (Homo sapiens, UniProt P36888, INS600HVDFREYEYD); experiment: Cellular assay of target protein degradation (MV-4-11 cells, westernblot); type: cell-based; settings: Table 3; FLT-3 degradation, result in words
T1 construct: probed with antibodies specific for FLT-3 and GAPDH; endogenous in cells; host or cells: MV-4-11 cells
T1 sequence (P36888 with tags, fused parts or gaps INS600HVDFREYEYD): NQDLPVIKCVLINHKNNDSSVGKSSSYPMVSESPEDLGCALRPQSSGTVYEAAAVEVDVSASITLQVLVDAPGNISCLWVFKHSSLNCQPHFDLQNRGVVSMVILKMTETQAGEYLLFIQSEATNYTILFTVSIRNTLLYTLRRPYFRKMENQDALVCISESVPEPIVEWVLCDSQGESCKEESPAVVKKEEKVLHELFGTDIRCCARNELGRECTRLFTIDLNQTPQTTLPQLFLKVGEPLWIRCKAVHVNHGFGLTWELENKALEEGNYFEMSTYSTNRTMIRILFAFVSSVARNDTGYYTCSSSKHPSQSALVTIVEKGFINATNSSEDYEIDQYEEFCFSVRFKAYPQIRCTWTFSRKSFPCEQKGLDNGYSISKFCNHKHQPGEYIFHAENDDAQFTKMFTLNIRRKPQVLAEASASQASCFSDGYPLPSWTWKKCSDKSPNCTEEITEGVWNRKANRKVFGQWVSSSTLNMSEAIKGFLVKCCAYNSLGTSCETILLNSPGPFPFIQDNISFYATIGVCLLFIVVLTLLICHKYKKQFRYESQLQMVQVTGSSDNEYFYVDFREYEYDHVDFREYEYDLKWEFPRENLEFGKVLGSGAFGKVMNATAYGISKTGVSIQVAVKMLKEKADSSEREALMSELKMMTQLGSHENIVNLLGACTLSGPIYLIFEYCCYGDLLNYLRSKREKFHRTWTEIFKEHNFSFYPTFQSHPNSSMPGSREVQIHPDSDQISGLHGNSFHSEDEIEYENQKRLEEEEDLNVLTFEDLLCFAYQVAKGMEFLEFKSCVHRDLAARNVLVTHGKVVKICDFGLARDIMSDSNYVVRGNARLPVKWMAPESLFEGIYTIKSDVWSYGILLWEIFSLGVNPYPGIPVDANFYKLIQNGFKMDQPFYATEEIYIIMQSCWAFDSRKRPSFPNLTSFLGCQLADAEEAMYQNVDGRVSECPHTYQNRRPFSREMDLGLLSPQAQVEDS
Experimental: Protocol for the Cellular Assay of Target Protein Degradation (MV-4-11 Cells, Westernblot).
MV-4-11 cells (approximately 1 million cells per well) were treated with the indicated concentrations ([…]) of compound for 24 hours. The cells were spun down and washed twice with PBS. The cells were suspended by lysis buffer (50 mM Tris (pH7.4), 150 mM NaCl, 1 mM EDTA, 0.5% NP-40, phosphatase and protease inhibitors) and incubated for an additional 30 min at 4° C. for complete lysis. After another centrifugation (13000 rpm for 15 minutes), the supernatants were kept as cell lysates. The protein concentration of the cell lysates was determined via the bicinchoninic acid (BCA) method. Equal amounts (10-20 μg) of protein samples were subjected to 8-15% SDS-PAGE. The proteins were transferred to nitrocellulose membrane and probed with antibodies specific for FLT-3 and GAPDH.

[2] = test system: MV4-11 cells; experiment: Cell proliferation assay (CellTiter 96 AQueous One Solution); type: cell-based; settings: Homo sapiens; for IC50: MV4-11, 72 h, MV4-11 cells, 72 hours, cell viability, read-out: IC50 (nM) MV4-11
Experimental: Protocol for the Cell Proliferation Assays (MV-4-11 Cells).
MV-4-11 or Molm 14 cells were seeded in 96-well plates at a density of 1×10^4 cells/well and treated with various concentrations of the test compounds for 72 hours. The highest concentration was 500 nM and was serially diluted 5-fold seven times. After incubation, 20 μl/well of CellTiter 96® AQueous One Solution Reagent (Promega®) was added and the plate was incubated an additional 3 hours. The absorbance was measured at 490 nm, and cell viability was calculated by comparing to the absorbance of the vehicle-treated control group using GraphPad Prism 7.
Cell viability/survival is illustrated in FIGS. 4A, 4B and 4C, as determined by a cell proliferation assay. […] DC50, IC50, MH+, and NMR data for exemplary PROTAC-34 through PROTAC-38 and PROTAC-34-Epimer (structure shown below) is shown in Table 3 below.

Degradation observed [1] | pIC50 ([2]; MV4-11, Table 3, MV4-11, read-out: IC50 [cell line]) | IC50 ([2]; Table 1) | IC50 ([2]; Table 2) | SMILES
No degradation | 8.64 | – | – | Cc1ncsc1-c1ccc(CNC(=O)[C@@H]2C[C@@H](O)CN2C(=O)[C@@H](NC(=O)CCOCCOCCOc2ccc3c(c2)sc2nc(-c4ccc(NC(=O)Nc5cc(C(C)(C)C)on5)cc4)cn23)C(C)(C)C)cc1 [PROTAC-34-Epimer]
No degradation | – | – | – | Cc1ncsc1-c1ccc(CNC(=O)[C@@H]2C[C@@H](O)CN2C(=O)[C@@H](NC(=O)CCOCCCCOc2ccc3c(c2)sc2nc(-c4ccc(NC(=O)Nc5cc(C(C)(C)C)on5)cc4)cn23)C(C)(C)C)cc1 [PROTAC-37]
– | – | 2.34 nM | 1.75 nM | CC(C)(C)c1cc(NC(=O)Nc2ccc(-c3cn4c(n3)sc3cc(OCCN5CCOCC5)ccc34)cc2)no1 [Quizartinib]
